Measurements as given in patent publication US20200061076A1, “METHODS OF TREATING LEUKODYSTROPHIES” (Ramot at Tel-Aviv University Ltd., priority 2017, published 2020).

Legend:
Mut MEFs [1] = assay: Oxygen consumption (Seahorse XF Cell Mito Stress Test), MEFs; format: cell-based, mouse; details: for basal and ATP-linked respiration rate per mitochondrial DNA content: 6 hours (FIGS. 8A-B)
Protocol: Mut MEFs were treated or not for 6 hours with the indicated concentrations of the indicated Sig-1R binders. Oxygen consumption was measured in a XF96 Extracellular Flux Analyzer using the Seahorse XF Cell Mito Stress Test Kit. The Basal respiration (FIG. 7A) and ATP-linked respiration (FIG. 7B) data were normalized to biomass as determined by Crystal Violet staining.
Mut MEFs were treated or not for 6 hours with the indicated concentrations of the indicated Sig-1R binders. Oxygen consumption was measured in a XF96 Extracellular Flux Analyzer using the Seahorse XF Cell Mito Stress Test Kit. The Basal respiration (FIG. 8A), ATP-linked respiration (FIG. 8B) and maximal respiration (FIG. 8C) data was normalized to mtDNA content as detailed in FIG. 2.
The data were normalized to cell number, obtained by Crystal Violet staining, or to mtDNA content.

Mut astrocytes = assay: Cell survival assay, Crystal violet staining, Mut astrocytes; format: cell-based, mouse; details: 24 hours, untreated cells set to 100%
Protocol: (§1) Cells were seeded on 96-wells plate at a density of 5000 cells per well. Astrocytes were seeded following coating with 0.001% PDL.

Sig-1R = Sig-1R (Homo sapiens, UniProt Q99720); assay: Competitive displacement binding assay with [3H]haloperidol (Eurofins); details: 10 μM compound
Protocol: Following, the direct binding of p8G5 to Sig-1R, was tested in-vitro by Eurofins labs (www(dot)cerep(dot)fr/cerep/users/pages/catalog/Affiche_CondExp_Test(dot)asp?test=889).

Mut MEFs [2] = assay: JC1 staining of intact and damaged mitochondria (mitochondrial membrane potential); format: cell-based, mouse; details: Mut MEFs
Protocol: Mut MEFs were treated or not for 6 hours with the indicated concentrations of p8G5 (blue), pre084 (purple), or NE-100 (yellow), washed and stained with Hoechst and JC1 for 30 minutes followed by image acquisition using In-Cell-Analyzer-2000. Shown is the % of red/green JC1 integrated intensity per cell relative to that in untreated WT cells of 2-4 independent experiments.
Following, the cells were washed, stained with Hoechst and JC-1 fluorescent dyes for 30 minutes, and subjected to image acquisition using In-Cell-Analyzer-2000. Shown is cellular content of damaged mitochondria (JC1 green channel, red bars), intact mitochondria (JC1 red channel, green bars) and damaged to intact mitochondria ratio (blue bars). Values of control (vehicle treated) cells was set to 100%.
Mut MEFs were treated with the indicated compounds at 10 μM for 24 hours followed by staining with fluorogenic dyes and image-based single-cell analysis. Shown is average effect on ROS level from at least 3-independent experiments ±SEM. […] Mut MEFs were incubated or not for 24 hours with 10 μM of the indicated compound, washed and stained with Crystal Violet. […] Mut MEFs were incubated or not for 24 hours with 10 μM of the indicated compound, washed and stained with JC1 and Hoechst followed by image-based single-cell analysis. Values of untreated cells were set as 100%. Shown is average of at least 3 independent experiments for each parameter compared to its matching control ±SEM. * p<0.05. Putative targets are indicated.
Mut MEFs were incubated or not for 24 hours with 10 μM of the indicated compounds, washed and stained with Hoechst and JC1 followed by image-based single-cell analysis. […] Mut MEFs were incubated or not with the indicated concentrations of the indicated compounds for 2 hours followed by addition of 50 ng/ml Tunicamycin (Tun) for additional 22 hours, stained with Crystal Violet followed by measurement of absorbance at 570 nm.
MEFs were seeded on 1% gelatin-coated 96-wells plate at a density of 5000 cells per well. 24 hours post-plating the cells were incubated with the tested compounds for additional 24 hours. Several DMSO-treated cells (control) were included in each plate at different locations. Following, the cells were stained by addition of fluorogenic dyes for further 30 minutes incubation at 37° C. […] CellROX was used together with Hoechst and CFSE; JC1 was used together with Hoechst. Cells were washed with Hank's balanced salt solution (HBSS) which was used for images acquisition using IN Cell Analyzer 2000 (GE Healthcare, Pitsburgh, Pa., USA). IN Cell Developer Toolbox 1.9.1 software (GE Healthcare) was used for analysis which included cells segmentation using Hoechst and/or CFSE signals. For analysis of JC1 staining, integrated intensity of green and red emissions were used for detection of damaged and intact mitochondria, respectively.

Mut MEFs [3] = assay: mtDNA quantification (qPCR of mitochondrial 12S rRNA and nuclear 18S rRNA genes), MEFs; format: cell-based, mouse; details: 0.1 μM-1 μM, 6 hours incubation (FIG. 2)
Protocol: DNA extracted from WT and Mut MEFs that were treated or not for 6 hours with 0.1 μM, 1 μM or 10 μM of p8G5 (blue), Pre084 (known SIG-1R agonist, purple), pridopidine (known SIG-1R agonists, green) or NE-100 (known SIG-1R antagonist, yellow) was subjected to qPCR analysis of mitochondrial 12S rRNA and nuclear 18S rRNA genes.

WT astrocytes = assay: Cell survival assay, Crystal violet staining, WT astrocytes; format: cell-based, mouse; details: 24 hours, untreated cells set to 100%
Protocol: as §1

Sequence of Sig-1R (Q99720 whole entry): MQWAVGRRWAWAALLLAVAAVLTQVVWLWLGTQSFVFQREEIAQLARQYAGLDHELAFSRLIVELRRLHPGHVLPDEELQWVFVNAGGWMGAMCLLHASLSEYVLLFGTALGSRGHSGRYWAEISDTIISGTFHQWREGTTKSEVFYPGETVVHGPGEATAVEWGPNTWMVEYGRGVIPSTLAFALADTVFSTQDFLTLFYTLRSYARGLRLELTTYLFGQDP

Cc1cccc(OCCCCCN2CCOCC2)c1 [H8 (p8G5), 4-[5-(3-methylphenoxy)pentyl]morpholine]
maximal respiration rate per mitochondrial content (Mut MEFs [1]; 1 μM, 6 hours (FIG. 8C)): increased the maximal respiration capacity per mitochondria to the level of untreated WT cells
basal and ATP-linked respiration rate per mitochondrial DNA content (Mut MEFs [1]; 1 μM): brought both parameters to WT levels
basal and ATP-linked respiration rate per mitochondrial DNA content (Mut MEFs [1]): statistically significant increase
basal respiration and ATP-linked respiration per cell (OCR) (Mut MEFs [1]; 6 hours, normalized to biomass (FIGS. 7A-B)): no effect
Survival (%) ± SEM Mut astrocytes (Mut astrocytes; 1 μM): 108 ± 0.6%
Survival (%) ± SEM Mut astrocytes (Mut astrocytes; 10 μM): 93 ± 2.1%
Survival (%) ± SEM Mut astrocytes (Mut astrocytes; 30 μM): 92 ± 1.6%
inhibition at 10 µM (Sig-1R): 92%
red/green JC1 signal (mitochondria with high to low membrane potential) (Mut MEFs [2]; 1 μM and 10 μM, 6 hours (FIG. 6)): increased the ratio between the content of mitochondria with high to low membrane potential
effect on mitochondrial health (JC1, intact and damaged mitochondria) (Mut MEFs [2]; 10 μM, 24 hours (FIG. 14C)): significant beneficial effect on mitochondrial health
mitochondrial content in Mut MEFs (Mut MEFs [3]): lowered the abnormal high mitochondrial content
Survival (%) ± SEM WT astrocytes (WT astrocytes; 1 μM): 132 ± 10.7%
Survival (%) ± SEM WT astrocytes (WT astrocytes; 10 μM): 102 ± 3.8%
Survival (%) ± SEM WT astrocytes (WT astrocytes; 30 μM): 99 ± 3.2%
